Laboratory results published in patent publication US20030162834A1, “Natural physiologically active material effective on fish diseases and fish food containing the material” (priority 1998, published 2003).

How the values were obtained:
[1] = Growth trial: tiger puffer fed basal diet supplemented with 0.5% octanoic acid; assay type: in vivo
Experimental: The inventors conducted trials using tiger puffer to test whether the octanoic acid adversely affects growth of fish. Two trial groups were prepared; i.e., one group fed the basal diet supplemented with 0.5% of octanoic acid (5 g of octanoic acid added for 1 kg of diet), and the other group fed the basal diet alone. Trial conditions were that 50 pieces of tiger puffer for each group were put in a 1-t water tank, and the puffs were fed twice per day, i.e., in the morning and evening. A bleeding trial period was 45 days and the water temperature was 25+−1 degrees centigrade during the trial period.

Cryptocaryon irritans = experiment: Trial 4: oral octanoic acid, Cryptocaryon irritans challenge trial on red sea bream; assay type: in vivo; details: 5 g octanoic acid per 1 kg pellets
Experimental: Fish tested: Red sea bream weighing approximately 9.8 g in average.
Trial groups: Two groups, i.e., an octanoic-acid added group in which fish were fed diets added with octanoic acid, and a control group in which fish were fed diets not added with octanoic acid. The feeding rate was 3% of fish weight/day for each group.
Trial diets: The diets added with octanoic acid were prepared by spraying 5 g of octanoic acid to 1 kg of commercially available pellets for red sea bream. The control group fish were fed the commercially available pellets for red sea bream.
Challenge trial: Each 30 pieces of fish from among a shoal of fish, in which no diseases such as Cryptocaryon irritans infection were found, were put in a 100-liter water tank, and were fed the respective trial diets. After 5 days, approximately 2000 individuals of ([…] theronts) of Cryptocaryon irritans were put in each water tank to infect the fish while water flow was stopped for 1 hour. Then, bleeding was continued for 15 days. During the trial period, the water temperature was in the range of 22.5-23.2 degrees centigrade and the water was exchanged at 20 cycles/day.
Evaluation was made by sampling 5 pieces of fish from each group after 3 days from the start of the challenge, comparing the number of parasites attaching to the gill and the body surface of each infected fish, and comparing mortality of the fish during the trial period between the respective groups.

CCCCCCCC(=O)O [octanoic acid]
died fish ([1]; continued for succeeding seven months): no died fish | adverse effects on puffer growth ([1]; in vivo): adverse effects on the puffer growth were not found | content of octanoic acid in the edible muscle ([1]; in vivo): no octanoic acid was detected | parasites on gill and body surface after 3 days from the challenge (Cryptocaryon irritans): no parasites were found | parasites at the end of the trial (Cryptocaryon irritans; 15 days): no parasites were found | fish mortality during the trial (Cryptocaryon irritans; 15 days, control all dead at the 8-th day): no fish died
